These compounds were tested on BHK cells (assay: Cell viability assay). Conditions: CC50 compared with M02.

Structure (SMILES)	cytotoxicity relative to parent compound M02 (times less)
Cc1nc(-n2nc(-c3ccccc3)cc2-c2ccccc2)sc1C(=O)NCc1ccc(Cl)c(Cl)c1 [Compound 11, N-(3,4-Dichlorobenzyl)-2-(3,5-diphenyl-1H-pyrazol-1-yl)-4-methylthiazole-5-carboxamide]	2.7 times

Each compound was assayed on yellow fever virus (assay: not given). Conditions: not given.
Type: cell-based, yellow fever virus (YFV 17D)

Structure (SMILES)	antiviral activity vs. yellow fever virus (in words)	antiviral activity relative to parent compound M02
C/C(=N\NC(N)=O)c1ccc(NC(=O)Nc2nc(C)c(C(=O)NCc3ccc(Cl)cc3Cl)s2)cc1 [Compound 1, (E)-2-(3-(4-(1-(2-Carbamoylhydrazono)-ethyl)-phenyl)-ureido)-N-(2,4-dichlorobenzyl)-4-methylthiazole-5-carboxamide]	inactive	–
C/C(=N\NC(=N)N)c1ccc(NC(=O)Nc2nc(C)c(C(=O)NCc3ccc(Cl)cc3Cl)s2)cc1 [Compound 2, (E)-2-(3-(4-(1-(2-Carbamimidoylhydrazono)-ethyl)-phenyl)-ureido)-N-(2,4-dichlorobenzyl)-4-methylthiazole-5-carboxamide]	active	–
CC(=O)c1ccc(NC(=O)Nc2nc(C)c(C(=O)O)s2)cc1 [Compound 4, 2-[3-(4-Acetylphenyl)-ureido]-4-methylthiazole-5-carboxylic Acid]	lost its activity	–
CC(=O)c1ccc(NC(=O)Nc2nc(C)c(C(=O)NCc3ccc(Cl)cc3Cl)s2)cc1 [Compound 7, 2-(3-(4-Acetylphenyl)-ureido)-N-(2,4-dichlorobenzyl)-4-methylthiazole-5-carboxamide]	inactive	–
CC(=O)c1ccc(NC(=O)Nc2nc(C)c(C(=O)NCc3ccc(Cl)c(Cl)c3)s2)cc1 [Compound 8, 2-(3-(4-Acetylphenyl)-ureido)-N-(3,4-dichlorobenzyl)-4-methylthiazole-5-carboxamide]	active	–
Cc1nc(-n2nc(-c3ccccc3)cc2-c2ccccc2)sc1C(=O)NCc1ccc(Cl)c(Cl)c1 [Compound 11, N-(3,4-Dichlorobenzyl)-2-(3,5-diphenyl-1H-pyrazol-1-yl)-4-methylthiazole-5-carboxamide]	–	10 times
COC(=O)c1sc(N(Cc2ccc(C(C)=O)cc2)Cc2ccc(C(C)=O)cc2)nc1C [Compound 18, Methyl 2-(Bis(4-acetylbenzyl)amino)-4-methylthiazole-5-carboxylate]	active	–
Nc1ccc(SCc2csc(-c3cccnc3)n2)cc1 [Compound 28]	lose antiviral activity	–
Nc1ccccc1SCc1csc(-c2cccnc2)n1 [Compound 29]	lose antiviral activity	–
Clc1ccc(-c2nc(CSc3cccc(Cl)c3)cs2)cc1 [Compound 30]	lose antiviral activity	–
COC(=O)c1sc(-c2ccc(Cl)cc2)nc1C [Compound 32, 2-(4-Chlorophenyl)-4-methyl-thiazole-5-carboxylic Acid Methyl Ester]	inactive	–
